{"source": "patent US12414991B2", "about": "“Azobenzene derivatives, process for their preparation and their use for therapeutic treatment associated with ionizing radiations” (CENTRE NATIONAL DE LA RECHERCHE SCIENTIFIQUE, priority 2019, dated 2025)", "key": {"[1]": {"test_system": "CCRF-CEM ARAC-8C cells (Gem-resistant human acute lymphoblastic leukemia)", "assay": "Therapeutic effect under ionizing radiation: cell viability by trypan blue cell count", "type": "cell-based", "description": "Just before the experiment, the cells (CCRF-CEM ARAC-8C) were dispersed in PBS and transferred to a 48-well microplate (TPP cell culture microplates purchased from Thermo Fisher Scientific, France) (40,000 cells in 80 μL/well). Gem (20 μL, final concentration 0.1 μM) or PBS (20 μL) and cis-GdAzo compound (100 μL, final concentration 0 μM, 250 μM, 500 μM or 850 μM) were added just prior to gamma irradiation of the medium (2 Gy). The medium was maintained in the dark and in a humid atmosphere at 37° C. with 5% CO2 for 1 h. Next, culture medium (600 μL) was added to each well and the cells were washed by three centrifugation cycles (300 G, 5 min, 800 μL of culture medium used for each wash). The cells were finally dispersed in culture medium (600 μL) containing or not containing Gem (final concentration 0 μM or 0.1 μM) and were maintained in a humid atmosphere at 37° C. with 5% CO2 for 4 days. The number of live cells was determined by cell count in the presence of 1:1 (v/v) trypan blue (triplicate). The experiment was repeated three times independently. Cell viability was expressed as the ratio of the number of living cells after treatment to the number of living cells without any treatment (without irradiation, in the absence of Gem and cis-GdAzo). A similar procedure was used for the control experiment without irradiation except that the 48-well microplate was not irradiated with gamma rays. A similar procedure was used for the control experiment with Dotarem® (FIG. 2f) except that Dotarem® was used instead of cis-GdAzo. The cis-GdAzo compound was obtained by UV irradiation (365 nm, 0.817 mW·cm−2, 30 min) of the trans-GdAzo compound (105 μL, 500 μM, 1 mM or 1.7 mM, cis-GdAzo>85%) in a 96-well microplate."}, "[2]": {"assay": "Thermal relaxation of the compound", "type": "physicochemical"}, "[3]": {"assay": "Quantification of ionizing-radiation-induced isomerization (molecular activation) by HPLC", "type": "physicochemical", "description": "Gamma ray irradiation. Gamma irradiation was performed with a Cesium-137 source (IBL 637) providing 662 keV photons at a dose rate of approximately 1 Gy/min. Radiation doses are expressed in Gray ([…]).\nGd-containing compounds (GdAzo or GdFAzo) and control compounds (Azo or FAzo) (50 μM, 200 μL, PBS) were introduced into two 96-well microplates (10 wells for each compound). Both microplates were first irradiated under UV light (365 nm, 0.817 mW·cm^−2, 5 min). One microplate (plate 1) was then kept in the dark and used as a non-irradiated control while the second (plate 2) was irradiated with an increment of ionizing radiation doses (2 Gy, 3 Gy, 5 Gy and 10 Gy). After each irradiation, absorbance spectrophotometric and HPLC injection (method C) analyses were performed on the non-irradiated (plate 1) and irradiated (plate 2) compounds. A 26 min time lag between UV irradiation of plates 1 and 2 was used to allow analysis of the unirradiated control compounds (plate 1) at the same time as the ionizing irradiated compounds (plate 2) after UV irradiation. […] The absorbance spectra were plotted by the mean of triplicates. The relative amount of each isomer was obtained by HPLC (detection at the isosbestic point wavelength under elution conditions) and the molecular activation (%) was determined by the difference in the proportion of trans isomer in the medium (3 independent experiments)."}, "Cells (PANC-1)": {"test_system": "Cells (PANC-1)", "assay": "Confocal microscopy in the presence of ionizing radiation: cell permeabilization (propidium iodide)", "type": "cell-based, human", "description": "Cells (PANC-1) were transferred to an imaging plate (Lab-Tek chamber slide system, glass, 8-well purchased from Thermo Fisher Scientific, France) 24 h before the start of the experiment, and were maintained in culture medium (10,000 cells in 200 μL/well) in a humid atmosphere at 37° C. with 5% CO2. Just before the experiment, the cell medium was replaced with PBS (100 μL) and IP (5 μL, final concentration 1 μM) was added to the medium. 15 min after the addition of PI, cis-GdAzo (100 μL, final concentration 0 μM, 250 μM, 500 μM or 850 μM) was introduced into the cell medium. A first series of images was acquired at this stage, and then the imaging plate was irradiated (gamma rays, 2 Gy). The imaging plate was then kept in the dark at 37° C. (plate warmer) and images were acquired every 5 min for 30 min and then every 10 min for 90 min. A similar procedure was used for the control experiment without irradiation except that the imaging plate was not irradiated with gamma rays. The cis-GdAzo compound was obtained by UV irradiation (365 nm, 0.817 mW·cm^−2, 30 min) of the trans-GdAzo compound (105 μL, 500 μM, 1 mM or 1.7 mM, cis-GdAzo>85%) in a 96-well microplate. […] The instrument was equipped with a laser diode at 561 nm as excitation wavelength. The red fluorescence emission was collected over a bandwidth of 598-672 nm and the transmission images were obtained with a white diode. The pinhole was set at 50 μm and the magnification lens at 1.2. The images were recorded by an e-Volve s-CMOS camera (Photometrics). Four images were recorded per well and two wells were used for each concentration of cis-GdAzo. Analysis of the 16-bit digital images was performed using ImageJ software (version 1.50i with the Adjustable Watershed plugin). The number of cells in the images acquired before irradiation was determined manually and the number of fluorescent cells in the images acquired before and after irradiation was calculated automatically using a script coded on ImageJ. Cell permeabilization was determined by the difference in the proportion of fluorescent cells before and 30 min after gamma irradiation (3 independent experiments)."}}, "data": [{"molecule": "CNC[C@H](O)[C@@H](O)[C@H](O)[C@H](O)CO.O=C([O-])CN1CCN(CC(=O)[O-])CCN(CC(=O)O)CCN(CC(=O)[O-])CC1.[Gd+3]", "note": "[Dotarem®, reference compound]", "values": [{"measurement": "therapeutic effect under ionizing radiation", "setting": "[1]; gamma irradiation (2 Gy), with or without Gem (0.1 μM), FIG. 2f", "result": "no therapeutic effect"}]}, {"molecule": "Gadolinium 2,6-difluoro-4-(N-(1,4,7,10-tetraazacyclododecane-1,4,7-triacetic acid-10-glutaryl)-ethoxyamine)-2′,6′-difluoro-4′-butoxyazobenzene [GdFAzo]", "values": [{"measurement": "thermal relaxation", "setting": "[2]", "result": "slow enough"}, {"measurement": "activation of the compound compared to GdAzo", "setting": "[3]; in vitro experimental conditions, FIG. 1c", "result": "relatively low"}, {"measurement": "activation by ionizing radiation", "setting": "[3]; ionizing radiation (X-rays, gamma rays, electrons), FIGS. 1a-f", "result": "can also be activated"}]}, {"molecule": "Gadolinium 4-(N-(1,4,7,10-tetraazacyclododecane-1,4,7-triacetic acid-10-glutaryl)-ethoxyamine)-4′-butoxyazobenzene [GdAzo]", "values": [{"measurement": "cell permeabilization", "setting": "Cells (PANC-1); 250 μM, gamma rays at 2 Gy, 30 min after irradiation", "result": 6.9, "unit": "%"}, {"measurement": "cell permeabilization", "setting": "Cells (PANC-1); 250 μM, without irradiation", "result": 1.2, "unit": "%"}, {"measurement": "cell permeabilization", "setting": "Cells (PANC-1); 500 μM, gamma rays at 2 Gy, 30 min after irradiation", "result": 8.2, "unit": "%"}, {"measurement": "cell permeabilization", "setting": "Cells (PANC-1); 500 μM, without irradiation", "result": 2.8, "unit": "%"}, {"measurement": "cell permeabilization", "setting": "Cells (PANC-1); 850 μM, gamma rays at 2 Gy, 30 min after irradiation", "result": 12.4, "unit": "%"}, {"measurement": "cell permeabilization", "setting": "Cells (PANC-1); 850 μM, without irradiation", "result": 7.5, "unit": "%"}, {"measurement": "cell viability 4 days after treatment", "setting": "[1]; 250 μM, absence of gemcitabine, gamma radiation at 2 Gy", "result": 23, "unit": "%"}, {"measurement": "cell viability 4 days after treatment", "setting": "[1]; 250 μM, absence of gemcitabine, without irradiation", "result": 79, "unit": "%"}, {"measurement": "cell viability 4 days after treatment", "setting": "[1]; 250 μM, presence of gemcitabine (0.1 μM), gamma radiation at 2 Gy", "result": 15, "unit": "%"}, {"measurement": "cell viability 4 days after treatment", "setting": "[1]; 250 μM, presence of gemcitabine (0.1 μM), without irradiation", "result": 49, "unit": "%"}, {"measurement": "cell viability 4 days after treatment", "setting": "[1]; 500 μM, absence of gemcitabine, gamma radiation at 2 Gy", "result": 18, "unit": "%"}, {"measurement": "cell viability 4 days after treatment", "setting": "[1]; 500 μM, absence of gemcitabine, without irradiation", "result": 42, "unit": "%"}, {"measurement": "cell viability 4 days after treatment", "setting": "[1]; 500 μM, presence of gemcitabine (0.1 μM), gamma radiation at 2 Gy", "result": 9.1, "unit": "%"}, {"measurement": "cell viability 4 days after treatment", "setting": "[1]; 500 μM, presence of gemcitabine (0.1 μM), without irradiation", "result": 30, "unit": "%"}, {"measurement": "cell viability 4 days after treatment", "setting": "[1]; 850 μM, absence of gemcitabine, gamma radiation at 2 Gy", "result": 3.0, "unit": "%"}, {"measurement": "cell viability 4 days after treatment", "setting": "[1]; 850 μM, absence of gemcitabine, without irradiation", "result": 27, "unit": "%"}, {"measurement": "cell viability 4 days after treatment", "setting": "[1]; 850 μM, presence of gemcitabine (0.1 μM), gamma radiation at 2 Gy", "result": 1.2, "unit": "%"}, {"measurement": "cell viability 4 days after treatment", "setting": "[1]; 850 μM, presence of gemcitabine (0.1 μM), without irradiation", "result": 16, "unit": "%"}]}]}
